Experimental data reported in ChEMBL document CHEMBL1135076, “Leishmanicidal activity of some aliphatic diamines and amino-alcohols” (Bioorg Med Chem Lett, 2002).

Legend:
Assay type in all cases: functional, organism-based
Leishmania braziliensis [1] = assay: Tested in vitro for leishmanicidal activity against Leishmania brasiliensis (2903) at the concentration of 100 ug/mL; ++ indicates 80-90% lysis of parasites
Leishmania amazonensis [2] = assay: In vitro for leishmanicidal activity against Leishmania amazonensis (PH8) at 25 ug/mL; No lysis of parasites.
Leishmania braziliensis [3] = assay: In vitro for leishmanicidal activity against Leishmania brasiliensis (2903) at the concentration of 50 ug/mL.
Leishmania braziliensis [4] = assay: In vitro for leishmanicidal activity against Leishmania brasiliensis (2903) at the concentration of 25 ug/mL.
Leishmania donovani [5] = assay: In vitro for leishmanicidal activity against Leishmania donovani (PP75) at the concentration of 50 ug/mL.
Leishmania donovani [6] = assay: In vitro for leishmanicidal activity against Leishmania donovani (PP75) at the concentration of 100 ug/mL.
Leishmania donovani [7] = assay: In vitro for leishmanicidal activity against Leishmania donovani (PP75) at the concentration of 25 ug/mL.
Leishmania amazonensis [8] = assay: In vitro for leishmanicidal activity against Leishmania amazonensis (PH8) at the concentration of 50 ug/mL.
Leishmania braziliensis [9] = assay: In vitro for leishmanicidal activity against Leishmania brasiliensis (2903) at the concentration of 10 ug/mL.
Leishmania donovani [10] = assay: Tested in vitro for leishmanicidal activity against Leishmania donovani (PP75) at the concentration of 10 ug/mL
Leishmania amazonensis [11] = assay: In vitro for leishmanicidal activity against Leishmania amazonensis (PH8) at the concentration of 10 ug/mL.
Leishmania amazonensis [12] = assay: In vitro for leishmanicidal activity against Leishmania amazonensis (PH8) at the concentration of 100 ug/mL.
Leishmania amazonensis [13] = assay: Tested in vitro for leishmanicidal activity against Leishmania amazonensis (PH8) at the concentration of 100 ug/mL; + indicates less than 70% lysis of parasites
Leishmania braziliensis [14] = assay: Tested in vitro for leishmanicidal activity against Leishmania brasiliensis (2903) at the concentration of 100 ug/mL; + indicates Less than 70% lysis of parasites
Leishmania donovani [15] = assay: Tested in vitro for leishmanicidal activity against Leishmania donovani (PP75) at the concentration of 100 ug/mL;+ indicates Less than 70% lysis of parasites
Leishmania braziliensis [16] = assay: In vitro for leishmanicidal activity against Leishmania brasiliensis (2903) at the concentration of 100 ug/mL.
Leishmania braziliensis [17] = assay: Tested in vitro for leishmanicidal activity against Leishmania brasiliensis (2903) at the concentration of 10 ug/mL;+ indicates Less than 70% lysis of parasites
Leishmania donovani [18] = assay: In vitro for leishmanicidal activity against Leishmania donovani (PP75) at the concentration of 10 ug/mL.
Leishmania donovani [19] = assay: Tested in vitro for leishmanicidal activity against Leishmania donovani (PP75) at the concentration of 50 ug/mL;++ indicates 80-90% lysis of parasites
Leishmania donovani [20] = assay: Tested in vitro for leishmanicidal activity against Leishmania donovani (PP75) at the concentration of 25 ug/mL;+ indicates Less than 70% lysis of parasites
Leishmania braziliensis [21] = assay: Tested in vitro for leishmanicidal activity against Leishmania brasiliensis (2903) at the concentration of 25 ug/mL;+ indicates Less than 70% lysis of parasites
Leishmania amazonensis [22] = assay: Tested in vitro for leishmanicidal activity against Leishmania amazonensis (PH8) at the concentration of 25 ug/mL; + indicates less than 70% lysis of parasites
Leishmania braziliensis [23] = assay: Tested in vitro for leishmanicidal activity against Leishmania brasiliensis (2903) at the concentration of 50 ug/mL;++ indicates 80-90% lysis of parasites

| SMILES | Activity (Leishmania braziliensis [1]) | Activity (Leishmania amazonensis [2]) | Activity (Leishmania braziliensis [3]) | Activity (Leishmania braziliensis [4]) | Activity (Leishmania donovani [5]) | Activity (Leishmania donovani [6]) | Activity (Leishmania donovani [7]) | Activity (Leishmania amazonensis [8]) | Activity (Leishmania braziliensis [9]) | Activity (Leishmania donovani [10]) | Activity (Leishmania amazonensis [11]) | Activity (Leishmania amazonensis [12]) | further results |
| --- | --- | --- | --- | --- | --- | --- | --- | --- | --- | --- | --- | --- | --- |
| CCCCCCCCCCCCCCC(N)CN (stereo unspecified) | 80-90% lysis of parasites | 80-90% lysis of parasites | 80-90% lysis of parasites | 80-90% lysis of parasites | 80-90% lysis of parasites | 80-90% lysis of parasites | 80-90% lysis of parasites | 80-90% lysis of parasites | 80-90% lysis of parasites | 80-90% lysis of parasites | 80-90% lysis of parasites | 80-90% lysis of parasites | – |
| CCCCCCCCCCCCCCC(NC(=O)OC(C)(C)C)C(=O)O (stereo unspecified) | 80-90% lysis of parasites | 80-90% lysis of parasites | 80-90% lysis of parasites | 80-90% lysis of parasites | 80-90% lysis of parasites | 80-90% lysis of parasites | 80-90% lysis of parasites | 80-90% lysis of parasites | 80-90% lysis of parasites | 80-90% lysis of parasites | 80-90% lysis of parasites | 80-90% lysis of parasites | – |
| CCCCCCCCCCCCCCC(N)CO (stereo unspecified) | 80-90% lysis of parasites | 80-90% lysis of parasites | 80-90% lysis of parasites | 80-90% lysis of parasites | 80-90% lysis of parasites | 80-90% lysis of parasites | 80-90% lysis of parasites | 80-90% lysis of parasites | 80-90% lysis of parasites | 80-90% lysis of parasites | 80-90% lysis of parasites | 80-90% lysis of parasites | – |
| CCCCCCCCCCCCCCC(=O)NC(CCCCCCCCCCCCCC)COC(=O)CCCCCCCCCCCCCC (stereo unspecified) | – | Less than 70% lysis of parasites | Less than 70% lysis of parasites | Less than 70% lysis of parasites | Less than 70% lysis of parasites | – | Less than 70% lysis of parasites | Less than 70% lysis of parasites | Less than 70% lysis of parasites | Less than 70% lysis of parasites | Less than 70% lysis of parasites | – | Activity (Leishmania amazonensis [13]): Less than 70% lysis of parasites; Activity (Leishmania braziliensis [14]): Less than 70% lysis of parasites; Activity (Leishmania donovani [15]): Less than 70% lysis of parasites |
| CCCCCCCCCCCCCCC(COCc1ccccc1)N(CC)CC (stereo unspecified) | 80-90% lysis of parasites | 80-90% lysis of parasites | 80-90% lysis of parasites | 80-90% lysis of parasites | 80-90% lysis of parasites | 80-90% lysis of parasites | 80-90% lysis of parasites | 80-90% lysis of parasites | 80-90% lysis of parasites | 80-90% lysis of parasites | 80-90% lysis of parasites | 80-90% lysis of parasites | – |
| CCCCCCCCCCCCCCC(COC(=O)CCCCCC)NC(=O)CCCCCC (stereo unspecified) | 80-90% lysis of parasites | 80-90% lysis of parasites | 80-90% lysis of parasites | 80-90% lysis of parasites | 80-90% lysis of parasites | 80-90% lysis of parasites | 80-90% lysis of parasites | 80-90% lysis of parasites | 80-90% lysis of parasites | 80-90% lysis of parasites | 80-90% lysis of parasites | 80-90% lysis of parasites | – |
| CCCCCCCCCCCCCCC(CO)NC(=O)CCCCCC (stereo unspecified) | – | Less than 70% lysis of parasites | Less than 70% lysis of parasites | Less than 70% lysis of parasites | Less than 70% lysis of parasites | Less than 70% lysis of parasites | Less than 70% lysis of parasites | Less than 70% lysis of parasites | Less than 70% lysis of parasites | Less than 70% lysis of parasites | Less than 70% lysis of parasites | Less than 70% lysis of parasites | Activity (Leishmania braziliensis [14]): Less than 70% lysis of parasites |
| CCCCCCCCCCCCCCC(COCc1ccccc1)NCC(=O)OCC (stereo unspecified) | 80-90% lysis of parasites | 80-90% lysis of parasites | 80-90% lysis of parasites | 80-90% lysis of parasites | 80-90% lysis of parasites | 80-90% lysis of parasites | 80-90% lysis of parasites | 80-90% lysis of parasites | 80-90% lysis of parasites | 80-90% lysis of parasites | 80-90% lysis of parasites | 80-90% lysis of parasites | – |
| CCCCCCCCCCCCCCC(CN)NC(=O)OC(C)(C)C (stereo unspecified) | 80-90% lysis of parasites | 80-90% lysis of parasites | 80-90% lysis of parasites | 80-90% lysis of parasites | 80-90% lysis of parasites | 80-90% lysis of parasites | 80-90% lysis of parasites | 80-90% lysis of parasites | 80-90% lysis of parasites | 80-90% lysis of parasites | 80-90% lysis of parasites | 80-90% lysis of parasites | – |
| CCCCCCCCCCCCCCC(N)CN(CC)CC (stereo unspecified) | – | – | – | – | + | + | – | + | – | – | Less than 70% lysis of parasites | + | Activity (Leishmania braziliensis [16]): +; Activity (Leishmania braziliensis [17]): Less than 70% lysis of parasites; Activity (Leishmania donovani [18]): Less than 70% lysis of parasites |
| C[C@@H]1[C@H](O)[C@@H](C)/C=C/C=C/C=C/C=C/C=C/C=C/C=C/[C@H](O[C@@H]2O[C@H](C)[C@@H](O)[C@H](N)[C@@H]2O)C[C@@H]2O[C@](O)(C[C@@H](O)C[C@@H](O)[C@H](O)CC[C@@H](O)C[C@@H](O)CC(=O)O[C@H]1C)C[C@H](O)[C@H]2C(=O)O | – | – | – | – | + | + | – | + | – | – | – | + | – |
| CCCCCCCCCCCCCCC(CNCC(=O)OCC)NC(=O)OC(C)(C)C (stereo unspecified) | – | – | – | – | – | + | – | + | – | – | 80-90% lysis of parasites | + | Activity (Leishmania donovani [19]): 80-90% lysis of parasites; Activity (Leishmania braziliensis [16]): +; Activity (Leishmania braziliensis [17]): 80-90% lysis of parasites; Activity (Leishmania donovani [20]): 80-90% lysis of parasites; Activity (Leishmania donovani [18]): 80-90% lysis of parasites; Activity (Leishmania braziliensis [21]): 80-90% lysis of parasites; Activity (Leishmania amazonensis [22]): 80-90% lysis of parasites; Activity (Leishmania braziliensis [23]): 80-90% lysis of parasites |
| CCCCCCCCCCCCCCC(COCc1ccccc1)NC(=O)CCCC(=O)O (stereo unspecified) | 80-90% lysis of parasites | 80-90% lysis of parasites | 80-90% lysis of parasites | 80-90% lysis of parasites | 80-90% lysis of parasites | 80-90% lysis of parasites | 80-90% lysis of parasites | 80-90% lysis of parasites | 80-90% lysis of parasites | 80-90% lysis of parasites | 80-90% lysis of parasites | 80-90% lysis of parasites | – |
| CCCCCCCCCCCCCCC(CO)NC(=O)OC(C)(C)C (stereo unspecified) | 80-90% lysis of parasites | 80-90% lysis of parasites | 80-90% lysis of parasites | 80-90% lysis of parasites | 80-90% lysis of parasites | 80-90% lysis of parasites | 80-90% lysis of parasites | 80-90% lysis of parasites | 80-90% lysis of parasites | 80-90% lysis of parasites | 80-90% lysis of parasites | 80-90% lysis of parasites | – |
